Consider seven compounds from ChEMBL document CHEMBL1156028, “Synthesis of 1,6,7,8-tetrahydro-naphtho[2,3-d]-azepino[4,5-b]indole-9,14-diones and their inhibitory effects on pro-inflammatory cytokines” (Bioorg Med Chem Lett, 2009).

Data set [1] deals with RAW264.7. In words: Antiinflammatory activity in mouse RAW264.7 cells assessed as inhibition of LPS-induced TNFalpha production after 24 hrs by immunoassay. The class given is functional, cell-based.
In data set [2] the test system is RAW264.7. The data set can be described thus: Antiinflammatory activity in mouse RAW264.7 cells assessed as inhibition of LPS-induced IL1-beta production at 1 to 5 ug/ml after 24 hrs by immunoassay. The class given is functional, cell-based.
The subject of data set [3] is RAW264.7. The data set can be described thus: Antiinflammatory activity in mouse RAW264.7 cells assessed as inhibition of LPS-induced PGE2 production at 5 ug/ml after 24 hrs by immunoassay. The class given is functional, cell-based.
A short description of data set [4]: Cytotoxicity against mouse RAW264.7 cells assessed as cell viability at 1 to 5 ug/ml after 4 hrs by MTT assay. The settings on record: read-out: Activity. Type of data set: cell-based. (In general: Tetrazolium dyes change colour on reduction, which living cells bring about.)
For data set [5], the system named is RAW264.7. The data set can be described thus: Antiinflammatory activity in mouse RAW264.7 cells assessed as inhibition of LPS-induced PGE2 production at 1 ug/ml after 24 hrs by immunoassay. Type of data set: functional, cell-based.
The subject of data set [6] is RAW264.7. The data set can be described thus: Antiinflammatory activity in mouse RAW264.7 cells assessed as inhibition of LPS-induced IL-6 production at 1 to 5 ug/ml after 24 hrs by immunoassay. Type of data set: functional, cell-based.
In data set [7] the test system is RAW264.7. The data set can be described thus: Antiinflammatory activity in mouse RAW264.7 cells assessed as inhibition of LPS-induced nitric oxide production after 24 hrs by immunoassay. Type of data set: functional, cell-based.

SMILES strings stand for the structures. Active and inactive are the calls of the source. The rule behind the calls is not given here.

Regarding `COc1ccc2[nH]c3c(c2c1)CCNC1=C3C(=O)c2ccccc2C1=O`, the Activity result in data set [1] and in data set [7] was “Dose-dependent effect” in each case. Moreover, the result in data set [2] and in data set [6] was inactive. Moreover, in data set [3], the result was Active. In addition, the viability at 4 h in data set [4] was 58%. Further, in data set [5], the inhibition result was “inactive”.
Regarding `O=C1C2=C(C(=O)c3ccccc31)c1[nH]c3ccccc3c1CCN2`, the Activity entry in data set [1] and in data set [7] was “Dose-dependent effect” each time. Further, the result in data set [2] and in data set [6] was inactive. Further, the result in data set [3] was Active. In addition, in data set [4], the viability at 4 h was 58%. Besides, in data set [5], the inhibition result was “inactive”.
For `C=CCN1CCc2c([nH]c3ccccc23)C2=C1C(=O)c1ccccc1C2=O`, the Activity entry in data set [1] and in data set [7] was “Dose-dependent effect” in each case. Also, the result in data set [2] and in data set [6] was inactive. For the same compound, the result in data set [3] was Active. Moreover, the viability at 4 h in data set [4] was 24%.
As to `CN1CCc2c([nH]c3ccccc23)C2=C1C(=O)c1ccccc1C2=O`, the Activity entry in data set [1] and in data set [7] was “Dose-dependent effect” in each case. The result in data set [2] and in data set [6] was inactive. In addition, the result in data set [3] was Active. The viability at 4 h in data set [4] came to 58%.
Regarding `COc1cccc2c1C(=O)C1=C(NCCc3c1[nH]c1ccccc31)C2=O`, the Activity result in data set [1] and in data set [7] was “Dose-dependent effect” throughout. Moreover, the outcome in data set [2] and in data set [6] was inactive. In addition, the result in data set [3] was Active. Also, the viability at 4 h in data set [4] is 58%. Also, the inhibition entry in data set [5] is “inactive”.
For `CCCN1CCc2c([nH]c3ccccc23)C2=C1C(=O)c1ccccc1C2=O`, the Activity entry in data set [1] and in data set [7] was “Dose-dependent effect” throughout. Besides, the result in data set [2] and in data set [6] was inactive. Besides, in data set [3], the result was Active. Also, in data set [4], the viability at 4 h worked out at 58%.
On to `O=C1C2=C(C(=O)c3ccccc31)N(Cc1ccccc1)CCc1c2[nH]c2ccccc12`, for which the Activity result in data set [1] and in data set [7] was “Dose-dependent effect” in each case. Also, the result in data set [2] and in data set [6] was inactive. Moreover, in data set [3], the result was Active. Also, the viability at 4 h in data set [4] is 58%. Further, the inhibition entry in data set [5] is “inactive”.
